Laboratory results: patent publication US10858356B2, “Pyrazolopyridine derivative having GLP-1 receptor agonist effect” (Chugai Seiyaku Kabushiki Kaisha, priority 2016, dated 2020)

What follows are compounds tested against human GLP1R (Homo sapiens (Human), UniProt P43220) (assay: In vitro cAMP signal activation in human GLP1R stably-expressing cell line (hGLP1R-HEK293)). Details: cAMP concentration in hGLP1R-HEK293; 100% = 1 nM human GLP-1 (7-37).
Sequence of human GLP1R (P43220 24-463): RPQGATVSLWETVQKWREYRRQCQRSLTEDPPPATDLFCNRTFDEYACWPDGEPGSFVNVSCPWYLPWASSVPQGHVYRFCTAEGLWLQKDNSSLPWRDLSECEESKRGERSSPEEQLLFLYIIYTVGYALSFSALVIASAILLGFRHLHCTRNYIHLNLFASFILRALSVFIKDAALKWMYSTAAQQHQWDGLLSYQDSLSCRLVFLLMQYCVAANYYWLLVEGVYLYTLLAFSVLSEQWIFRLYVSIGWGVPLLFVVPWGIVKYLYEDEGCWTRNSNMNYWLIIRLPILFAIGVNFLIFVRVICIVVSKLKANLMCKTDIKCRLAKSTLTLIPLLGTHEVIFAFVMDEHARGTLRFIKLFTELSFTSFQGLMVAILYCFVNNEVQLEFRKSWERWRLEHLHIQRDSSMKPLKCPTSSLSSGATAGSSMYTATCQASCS
Type: cell-based
For `COCCn1ncc2cc(-n3ccn(-c4c5c(nn4-c4cc(C)c(F)c(C)c4)CCN(C(=O)c4cc6cc([C@H]7CCOC(C)(C)C7)ccc6n4[C@@]4(c6noc(=O)[nH]6)C[C@@H]4C)[C@H]5C)c3=O)c(F)cc21` [compound 71, 3-[(1S,2S)-1-[5-[(4S)-2,2-dimethyloxan-4-yl]-2-[(4S)-2-(4-fluoro-3,5-dimethylphenyl)-3-[3-[6-fluoro-1-(2-methoxyethyl)indazol-5-yl]-2-oxoimidazol-1-yl]-4-methyl-6,7-dihydro-4H-pyrazolo[4,3-c]pyridine-5-carbonyl]indol-1-yl]-2-methylcyclopropyl]-4H-1,2,4-oxadiazol-5-one], the EC50 was 1.3 nM. Work on `Cc1cc(-n2nc3c(c2-n2ccn(-c4ccc5c(c4)CC(=O)N(C)C5)c2=O)[C@H](C)N(C(=O)c2cc4cc([C@H]5CCOC(C)(C)C5)ccc4n2[C@@]2(c4noc(=O)[nH]4)C[C@@H]2C)CC3)cc(C)c1F` [Example 39, 3-[(1S,2S)-1-[5-[(4S)-2,2-dimethyloxan-4-yl]-2-[(4S)-2-(4-fluoro-3,5-dimethylphenyl)-4-methyl-3-[3-(2-methyl-3-oxo-1,4-dihydroisoquinolin-6-yl)-2-oxoimidazol-1-yl]-6,7-dihydro-4H-pyrazolo[4,3-c]pyridine-5-carbonyl]indol-1-yl]-2-methylcyclopropyl]-4H-1,2,4-oxadiazol-5-one] yielded an EC50 of 1 nM. With `Cc1cc(-n2nc3c(c2-n2ccn(-c4ccc5c(cnn5CC(F)(F)F)c4F)c2=O)[C@H](C)N(C(=O)c2cc4cc(C5CCOCC5)ccc4n2[C@@]2(c4noc(=O)[nH]4)C[C@@H]2C)CC3)ccc1F` [Example 46, 3-[(1S,2S)-1-[2-[(4S)-2-(4-fluoro-3-methylphenyl)-3-[3-[4-fluoro-1-(2,2,2-trifluoroethyl)indazol-5-yl]-2-oxoimidazol-1-yl]-4-methyl-6,7-dihydro-4H-pyrazolo[4,3-c]pyridine-5-carbonyl]-5-(oxan-4-yl)indol-1-yl]-2-methylcyclopropyl]-4H-1,2,4-oxadiazol-5-one] the EC50 was 3.3 nM. With `COc1nccc(-c2ccc3c(c2)cc(C(=O)N2CCc4nn(-c5cc(C)c(F)c(C)c5)c(-n5ccn(-c6ccc7c(cnn7CC(C)(C)O)c6)c5=O)c4C2)n3[C@@]2(c3noc(=O)[nH]3)C[C@@H]2C)c1C` [Example 6, 3-[(1S,2S)-1-[2-[2-(4-fluoro-3,5-dimethylphenyl)-3-[3-[1-(2-hydroxy-2-methylpropyl)indazol-5-yl]-2-oxoimidazol-1-yl]-6,7-dihydro-4H-pyrazolo[4,3-c]pyridine-5-carbonyl]-5-(2-methoxy-3-methylpyridin-4-yl)indol-1-yl]-2-methylcyclopropyl]-4H-1,2,4-oxadiazol-5-one] the EC50 was 2.9 nM. For `Cc1cc(-n2nc3c(c2-n2ccn(-c4ccc5c(cnn5CC5(C)COC5)c4F)c2=O)[C@H](C)N(C(=O)c2cc4cc([C@H]5CCOC(C)(C)C5)ccc4n2[C@@]2(c4noc(=O)[nH]4)C[C@@H]2C)CC3)cc(C)c1F` [Example 37, 3-[(1S,2S)-1-[5-[(4S)-2,2-dimethyloxan-4-yl]-2-[(4S)-2-(4-fluoro-3,5-dimethylphenyl)-3-[3-[4-fluoro-1-[(3-methyloxetan-3-yl)methyl]indazol-5-yl]-2-oxoimidazol-1-yl]-4-methyl-6,7-dihydro-4H-pyrazolo[4,3-c]pyridine-5-carbonyl]indol-1-yl]-2-methylcyclopropyl]-4H-1,2,4-oxadiazol-5-one], the EC50 was 2.5 nM. `CC[C@H]1CN(c2ccc3c(c2)cc(C(=O)N2CCc4nn(-c5cc(C)c(F)c(C)c5)c(-n5ccn(-c6ccc7c(cnn7C)c6)c5=O)c4C2)n3[C@@]2(c3noc(=O)[nH]3)C[C@@H]2C)CCO1` [compound 53] showed an EC50 of 2.9 nM.
